Assay: storage of the aqueous salt solution at room temperature under nitrogen
Format: physicochemical
Conditions: ~10% aqueous solution, stored for several days at room temperature under nitrogen
Experimental: Naringenin (500 mg, 1.84 mmol) was suspended in water (2 mL) and while stirring a solution of NaOH (2 equiv.) in water (3 mL) was added dropwise. After addition was complete, the reaction was bubbled with nitrogen and stirring continued until the solution became homogeneous. […] MS 273 (M+3H−2Na)^+.
Naringenin (500 mg, 1.84 mmol) was suspended in water (2 mL) and while stirring a solution of KOH (2 equiv.) in water (3 mL) was added dropwise. After addition was complete, the reaction was bubbled with nitrogen and stirring continued until the solution became homogeneous. […] MS 273 (M+3H−2K)^+.
Phloterin (500 mg, 1.82 mmol) was suspended in water (2 mL) and while stirring a solution of NaOH (2 equiv.) in water (3 mL) was added dropwise. After addition was complete, the reaction was bubbled with nitrogen and stirring continued until the solution became homogeneous. […] MS 275 (M+3H−2Na)^+.
Phloterin (500 mg, 1.82 mmol) was suspended in water (2 mL) and while stirring a solution of KOH (2 equiv.) in water (3 mL) was added dropwise. After addition was complete, the reaction was bubbled with nitrogen and stirring continued until the solution became homogeneous. […] MS 275 (M+3H−2K)^+.
In the case of `O=C(CCc1ccc(O)cc1)c1c(O)cc(O)cc1O.[Na].[Na]` [Example 3, Disodium Salt of Phloterin], the “stability of the solution on storage” value is reported as “without any significant change”. With `O=C(CCc1ccc(O)cc1)c1c(O)cc(O)cc1O.[K].[K]` [Example 4, Dipotassium Salt of Phloterin] the “stability of the solution on storage” value was “without any significant change”. For `O=C1C[C@@H](c2ccc(O)cc2)Oc2cc(O)cc(O)c21.[K].[K]` [Example 2, Dipotassium Salt of Naringenin], the “stability of the solution on storage” value was “without any significant change”. In the case of `O=C1C[C@@H](c2ccc(O)cc2)Oc2cc(O)cc(O)c21.[Na].[Na]` [Example 1, Disodium Salt of Naringenin], the “stability of the solution on storage” value is reported as “without any significant change”.

Reference: US20250084049A1, “POLYCATIONIC SALTS OF PHENOLIC COMPOUNDS AND USES THEREOF” (Firmenich Incorporated, priority 2021, published 2025)
